Laboratory results published in patent US20250057801A1, “Methods for Treating Traumatic Brain Injury” (The Government of the United States, as Represented by the …, priority 2023, published 2025).

How the values were obtained:
[1] = test system: penetrating brain injury (PTBI); assay: Total glutathione content (DTNB cycling assay) in brain homogenate after PTBI; assay type: in vivo, male Sprague-Dawley rats; settings: 24 hours post-PTBI
Method: (§1) Three experimental groups (N=4-8 male Sprague-Dawley rats/group) were studied. The first group was a sham group in which there was no penetrating brain injury and no treatment with resveratrol triacetate (RES). The second group was subject to a penetrating brain injury (via probe insertion and balloon inflation) and treated with dimethyl sulfoxide, DMSO (vehicle, VEH) and dosed at 15 minutes and 6 hours after injury and then once daily. The third group was subject to a penetrating brain injury and treated with RES and dosed at 15 minutes and six hours after injury and then once daily.
(§2) After 60 minutes of the last dosing at either 24 hours or 3 days post-injury, fresh viable mitochondria were isolated from the injury core of rats' brain. Homogenate fractions were collected for a glutathione assay.
(§3) Mitochondrial bioenergetics parameters were measured using a high-throughput procedure of the Seahorse XFe96 Flux Analyzer. The glutathione content was measured using a 5,5′-dithiobis-(2-nitrobenzoic acid) (DTNB) cycling method/assay. Antioxidant and oxidative stress were measured by a Western blot (WB) analysis.
(§4) Graphs and statistical analysis were performed using GraphPad Prism program. Data are presented as mean±SEM (standard error of means). ANOVA with Fisher post-hoc test was used to evaluate significant difference at * p<0.05 vs. Sham; $ p<0.05 vs. Vehicle (N=4-8 animals/group).

[2] = test system: penetrating brain injury (PTBI); assay: Western blot of antioxidant, oxidative stress, membrane integrity and apoptosis markers after PTBI; assay type: in vivo, male Sprague-Dawley rats
Method: as §1, §2, §3, §4

[3] = test system: penetrating brain injury (PTBI); assay: Mitochondrial bioenergetics (Seahorse XFe96 Flux Analyzer) in injury core mitochondria after PTBI; assay type: in vivo, male Sprague-Dawley rats; settings: compared to VEH
Method: as §1, §2, §3, §4

[4] = cited from earlier work
[5] = in vivo; cited from earlier work

Row | SMILES | total glutathione (GSH) content [1] | Cytochrome C (CYT C) expression compared to VEH ([2]; 24 hours post-PTBI) | catalase (CAT) expression compared to VEH ([2]; 24 hours post-PTBI) | glyceraldehyde 3-phosphate dehydrogenase (GAPDH) expression compared to VEH ([2]; 24 hours post-PTBI) | lipid peroxidation marker 4-hydroxynonenal (4-HNE) adduct formation compared to VEH ([2]; 24 hours post-PTBI) | superoxide dismutase (SOD) expression compared to VEH ([2]; 24 hours post-PTBI) | thioredoxin (TRX) expression compared to VEH ([2]; 24 hours post-PTBI) | CAT expression compared to VEH ([2]; 3 days post-PTBI) | CYT C expression compared to VEH ([2]; 3 days post-PTBI) | SOD expression compared to VEH ([2]; 3 days post-PTBI) | anti-apoptotic protein Bcl-2 expression compared to VEH ([2]; 3 days post-PTBI) | voltage-dependent anion channels (VDAC) expression compared to VEH ([2]; 3 days post-PTBI) | bioenergetics in injured core mitochondria, as measured by ATP synthesis ([3]; 24 hours post-PTBI) | bioenergetics in injured core mitochondria ([3]; 3 days post-PTBI) | water solubility [4] | half-life [5]
1 | CC(=O)Oc1ccc(/C=C/c2cc(OC(C)=O)cc(OC(C)=O)c2)cc1 [RES, 3′,5′,4′-tri-o-acetyl resveratrol] | reversed PTBI-induced downregulation of total glutathione (GSH) content | +105% | −62% | −16.5% | non-significant improvement | +42% | +38% | −30% | +64% | +90% | +104% | +47% | trend of improved bioenergetics | non-significant trend of bioenergetics improvement |  | 
2 | Oc1ccc(C=Cc2cc(O)cc(O)c2)cc1 [Resveratrol] |  |  |  |  |  |  |  |  |  |  |  |  |  |  | low water solubility | 8 to 14 min
